Consider 20 molecules from US20260137706A1, “METHODS OF TREATING INFLAMMATORY DISEASES” (INTERLINE THERAPEUTICS, INC., priority 2023, published 2026).

The target in experiment [1] is T1, GST-RIPK2 fusion protein (human RIPK2, amino acids 1-310) (Homo sapiens, UniProt O43353).
T1 construct: made in house; host or cells: baculovirus infected Sf9 cells
The experiment can be described thus: RIPK2 binding competition assay (TR-FRET, Tracer 199 displacement). To be noted: 10 nM Tracer 199, 1 nM GST-RIPK2, read-out: RIPK2 IC50. In short, it runs like this:
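GST-RIPK2 (human aa 1-310, Sf9-expressed; final 1 nM) with Tracer 199 (final 10 nM) and Tb-anti-GST (final 0.5 nM) in Tris pH 7.5 buffer, 45 min at 22 °C. TR-FRET 665/620 nm ratio after 337 nm excitation; normalized to no-inhibitor (0%) and no-protein (−100%), giving IC50.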
(In general: Time-resolved FRET reads energy transfer from a long-lived donor to a nearby acceptor.)

Experiment [2] concerns the target T2, binding of His-XIAP(BIR2)-avi fusion protein to GST-RIPK2 fusion protein (RIPK2/XIAP) (Homo sapiens, UniProt O43353).
T2 construct: made in house; host or cells: baculovirus infected Sf9 cells
The experiment can be described thus: RIPK2-XIAP binding competition PPI assay (TR-FRET). To be noted: RIPK2/XIAP binding competition PPI assay; for Emax: Amax, read-out: PPI Amax bin; for IC50: read-out: PPI IC50 bin. In short, it runs like this: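 Compounds (in DMSO, 100-fold stock) incubated 120 min at 23 °C with 1 nM GST-RIPK2 (aa 1-310) and 25 nM His-XIAP(BIR2 aa 152-231)-avi, plus anti-His-XL665 and anti-GST-Tb, in pH 7.5 Tris buffer. Read-out: 665/520 nm emission ratio. Normalized to no-inhibitor (0%) and 50 nM GSK583 (−100%); Amax binned A–D.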

Experiment [3] has as its system NF-κB pathway (SEAP) in THP1-Dual cells. The experiment is described as follows: THP-1 Dual cell SEAP assay (L18-MDP stimulated). Format: cell-based. The following applies: Homo sapiens, THP1-Dual, read-out: NF-κB THP1 IC50 bin. An outline of the steps:
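THP1-Dual cells (~25,000/well) were preincubated 30 min with serially diluted compounds, then stimulated with 10 ng/mL L18-MDP (final) for 20-24 h at 37 °C. Supernatant SEAP was read with QUANTI-Blue at OD 620-655 nm after 2 h. IC50 came from non-linear fits of % inhibition versus DMSO/L18-MDP controls after media-blank subtraction.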

T2 sequence (O43353 1-310 limits assumed): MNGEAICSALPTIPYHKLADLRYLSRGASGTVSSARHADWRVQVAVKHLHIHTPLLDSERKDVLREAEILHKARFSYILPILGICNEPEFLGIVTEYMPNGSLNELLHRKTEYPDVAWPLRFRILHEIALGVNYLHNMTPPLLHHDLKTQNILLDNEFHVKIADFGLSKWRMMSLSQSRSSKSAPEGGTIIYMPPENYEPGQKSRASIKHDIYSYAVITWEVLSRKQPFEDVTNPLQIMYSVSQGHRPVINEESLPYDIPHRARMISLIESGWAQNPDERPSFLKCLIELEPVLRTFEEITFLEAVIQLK
T1 sequence (O43353 1-310): as the sequence (O43353 1-310 limits assumed) above

What is called IC50 is the concentration needed to halve the response being measured. As for `CC(C)(C)S(=O)(=O)c1cc2c(-c3cc(F)c(N)nc3F)cnn2cc1OCCOP(=O)(O)O` [Example 188, 2-((3-(6-amino-2,5-difluoropyridin-3-yl)-5-(tert-butylsulfonyl)pyrazolo[1,5-a]pyridin-6-yl)oxy)ethyl dihydrogen phosphate], the IC50 was greater than 20 nM in experiment [1], greater than 20 nM in experiment [2] and greater than 1000 nM in experiment [3]. Also, in experiment [2], the Emax is greater than 80%.

With `COCCn1cc(-c2cc3ncc(-c4cc(F)c(N)nc4F)n3cc2S(=O)(=O)C(C)(C)C)cn1` [Example 23, 5-(6-(tert-butylsulfonyl)-7-(1-(2-methoxyethyl)-1H-pyrazol-4-yl)imidazo[1,2-a]pyridin-3-yl)-3,6-difluoropyridin-2-amine], the IC50 in experiment [1] fell in the range of 2.5 to 20 nM; in experiment [2], 2.5 to 20 nM; in experiment [3], 250 to 1000 nM. Further, the Emax in experiment [2] was greater than 80%.

With `CC(C)(CO)COc1cc2ncc(-c3cc(F)c(N)nc3F)n2cc1S(=O)(=O)C(C)(C)C` [Example 47, 3-((3-(6-amino-2,5-difluoropyridin-3-yl)-6-(tert-butylsulfonyl)imidazo[1,2-a]pyridin-7-yl)oxy)-2,2-dimethylpropan-1-ol], the IC50 lay within 1 to 2.5 nM in experiment [1], 1 to 2.5 nM in experiment [2] and 50 to 250 nM in experiment [3]. The Emax in experiment [2] is greater than 80%.

Take `COc1cc2ncc(-c3cc(F)c(N)nc3F)n2cc1S(=O)(=O)C(C)(C)CN1CCOCC1` [Example 168, 3,6-difluoro-5-(7-methoxy-6-((2-methyl-1-morpholinopropan-2-yl)sulfonyl)imidazo[1,2-a]pyridin-3-yl)pyridin-2-amine]: the figures for the IC50 in experiment [1], in experiment [2] and in experiment [3] were 2.5 to 20 nM, 2.5 to 20 nM and 250 to 1000 nM, respectively. The Emax in experiment [2] is greater than 80%.

Consider `COc1cc2ncc(-c3ccc4c(c3)OCC4O)n2cc1S(=O)(=O)C(C)(C)C` (centres unmarked) [Example 86, 6-(6-(tert-butylsulfonyl)-7-methoxyimidazo[1,2-a]pyridin-3-yl)-2,3-dihydrobenzofuran-3-ol], for which the IC50 was greater than 20 nM in experiment [1], greater than 20 nM in experiment [2] and greater than 1000 nM in experiment [3]. Also, the Emax in experiment [2] was less than 30%.

Turning to `CC(C)(C)S(=O)(=O)c1cn2c(-c3ccc4nccn4c3)cnc2cc1OCCO` [Example 208, 2-((6-(tert-butylsulfonyl)-[3,6′-biimidazo[1,2-a]pyridin] -7-yl)oxy)ethan-1-ol], the concentration for half-maximal inhibition (IC50) was 2.5 to 20 nM in experiment [1], greater than 20 nM in experiment [2] and greater than 1000 nM in experiment [3]. The Emax in experiment [2] was less than 30%.

As to `CCS(=O)(=O)Nc1cc(-c2cnc3cc(OC)c(S(=O)(=O)C(C)(C)CO)cn23)cc(Cl)c1OC` [Example 128, N-(3-chloro-5-(6-((1-hydroxy-2-methylpropan-2-yl)sulfonyl)-7-methoxyimidazo[1,2-a]pyridin-3-yl)-2-methoxyphenyl)ethanesulfonamide], the IC50 was in the range of 1 to 2.5 nM in experiment [1], 1 to 2.5 nM in experiment [2] and 50 to 250 nM in experiment [3]. Further, in experiment [2], the Emax fell in the range of 55 to 80%.

Turning to `COc1cc2ncc(-c3cnc4c(c3)OCC4O)n2cc1S(=O)(=O)C(C)(C)C` (centres unmarked) [Example 87, 6-(6-(tert-butylsulfonyl)-7-methoxyimidazo[1,2-a]pyridin-3-yl)-2,3-dihydrofuro[3,2-b]pyridin-3-ol], the results for the IC50 in experiment [1], in experiment [2] and in experiment [3] were greater than 20 nM, greater than 20 nM and greater than 1000 nM, respectively. Also, the Emax in experiment [2] lay in the range of 30 to 55%.

Consider `C[C@@H](O)COc1cn2ncc(-c3cc(F)c(N)nc3F)c2cc1S(=O)(=O)C(C)(C)C` [Example 259, (R)-1-((3-(6-amino-2,5-difluoropyridin-3-yl)-5-(tert-butylsulfonyl)pyrazolo [1,5-a]pyridin-6-yl)oxy)propan-2-ol], for which the IC50 in experiment [1] lay within 2.5 to 20 nM; in experiment [2] it was 1 to 2.5 nM; in experiment [3] it was 50 to 250 nM. The Emax in experiment [2] was greater than 80%.

For `COc1cc2ncc(-c3cc(F)c(N)nc3F)n2cc1S(=O)(=O)C1(C)CC1` [Example 68, 3,6-difluoro-5-(7-methoxy-6-((1-methylcyclopropyl)sulfonyl)imidazo[1,2-a]pyridin-3-yl)pyridin-2-amine], the IC50 in experiment [1] is greater than 20 nM; in experiment [2], greater than 20 nM; in experiment [3], greater than 1000 nM. Also, the Emax in experiment [2] was greater than 80%.

For `CC(C)(C)S(=O)(=O)c1cn2c(-c3cc(F)c(N)nc3F)cnc2cc1OCC(F)CO` (centres unmarked) [Example 203, 3-((3-(6-amino-2,5-difluoropyridin-3-yl)-6-(tert-butylsulfonyl)imidazo [1,2-a]pyridin-7-yl)oxy)-2-fluoropropan-1-ol], the IC50 in experiment [1] was in the range of 1 to 2.5 nM; in experiment [2] it was 1 to 2.5 nM; in experiment [3] it was 50 to 250 nM. In experiment [2], the Emax is greater than 80%.

Take `CCS(=O)(=O)Nc1cc(-c2cnc3cc(OC)c(C(=O)N4CCOCC4)cn23)cc(F)c1OC` [Example 190, N-(3-fluoro-2-methoxy-5-(7-methoxy-6-(morpholine-4-carbonyl)imidazo[1,2-a]pyridin-3-yl)phenyl) ethanesulfonamide]: the IC50 is greater than 20 nM in experiment [1], greater than 20 nM in experiment [2] and greater than 1000 nM in experiment [3]. Also, the Emax in experiment [2] lay in the range of 55 to 80%.

`CCCS(=O)(=O)Nc1cc(-c2cnc3cc(OC)c(S(=O)(=O)C(C)(C)C)cn23)cc(-n2cccn2)c1` [Example 81, N-(3-(6-(tert-butylsulfonyl)-7-methoxyimidazo[1,2-a]pyridin-3-yl)-5-(1H-pyrazol-1-yl)phenyl)propane-1-sulfonamide]: the values for the IC50 in experiment [1], in experiment [2] and in experiment [3] were 1 to 2.5 nM, greater than 20 nM and 250 to 1000 nM, respectively. Further, the Emax in experiment [2] was less than 30%.

In the case of `CCS(=O)(=O)c1cn2c(-c3cc(F)c(OC)c(NS(=O)(=O)c4cnn(C)c4)c3)cnc2cc1OC` [Example 242, N-(5-(6-(ethylsulfonyl)-7-methoxyimidazo[1,2-a]pyridin-3-yl)-3-fluoro-2-methoxyphenyl)-1-methyl-1H-pyrazole-4-sulfonamide], the IC50 is less than 1 nM in experiment [1], less than 1 nM in experiment [2] and 50 to 250 nM in experiment [3]. Moreover, the Emax in experiment [2] was greater than 80%.

For `CC(C)(C)S(=O)(=O)c1cn2c(-c3cc(F)c(N)nc3F)cnc2cc1-c1cc[nH]n1` [Example 37, 5-(6-(tert-butylsulfonyl)-7-(1H-pyrazol-3-yl)imidazo[1,2-a]pyridin-3-yl)-3,6-difluoropyridin-2-amine], the IC50 in experiment [1] was greater than 20 nM; in experiment [2], greater than 20 nM; in experiment [3] it was greater than 1000 nM. Moreover, in experiment [2], the Emax is greater than 80%.

As to `COc1cc2ncc(-c3cc(F)c(OC)c(NC(=O)c4cnn(C)c4)c3)n2cc1S(=O)(=O)C(C)(C)C` [Example 296, N-(5-(6-(tert-butylsulfonyl)-7-methoxyimidazo[1,2-a]pyridin-3-yl)-3-fluoro-2-methoxyphenyl)-1-methyl-1H-pyrazole-4-carboxamide], the IC50 is greater than 20 nM in experiment [1], greater than 20 nM in experiment [2] and greater than 1000 nM in experiment [3]. Moreover, in experiment [2], the Emax was greater than 80%.

`COc1cc2ncc(-c3cc(F)c(N)nc3F)n2cc1S(=O)(=O)c1ccnn1C` [Example 77, 3,6-difluoro-5-(7-methoxy-6-((1-methyl-1H-pyrazol-5-yl)sulfonyl)imidazo[1,2-a]pyridin-3-yl)pyridin-2-amine]: the IC50 in experiment [1] was greater than 20 nM; in experiment [2] it was greater than 20 nM; in experiment [3], greater than 1000 nM. Moreover, the Emax in experiment [2] was greater than 80%.

Consider `COc1cc2ncc(-c3cc(F)c(OC)c(NS(=O)(=O)c4cnn(C)c4C)c3)n2cc1S(=O)(=O)C(C)(C)C` [Example 280, N-(5-(6-(tert-butylsulfonyl)-7-methoxyimidazo[1,2-a]pyridin-3-yl)-3-fluoro-2-methoxyphenyl)-1,5-dimethyl-1H-pyrazole-4-sulfonamide], for which the IC50 lay in the range of 1 to 2.5 nM in experiment [1], 1 to 2.5 nM in experiment [2] and 50 to 250 nM in experiment [3]. The Emax in experiment [2] was greater than 80%.

On to `COc1cc2ncc(-c3cc(F)c(N)nc3F)n2cc1S(=O)(=O)N1CCN(C)CC1` [Example 165, 3,6-difluoro-5-(7-methoxy-6-((4-methylpiperazin-1-yl)sulfonyl)imidazo[1,2-a]pyridin-3-yl)pyridin-2-amine], for which the IC50 was greater than 20 nM in experiment [1], greater than 20 nM in experiment [2] and greater than 1000 nM in experiment [3]. Moreover, in experiment [2], the Emax was greater than 80%.

Regarding `COc1cc2ncc(-c3ccc4c(C)nn(C)c4c3)n2cc1S(=O)(=O)C(C)(C)C` [Example 108, 6-(6-(tert-butylsulfonyl)-7-methoxyimidazo[1,2-a]pyridin-3-yl)-1,3-dimethyl-1H-indazole], the figures for the IC50 in experiment [1], in experiment [2] and in experiment [3] were greater than 20 nM, greater than 20 nM and greater than 1000 nM, respectively. In addition, the Emax in experiment [2] was less than 30%.
